# Data: patent publication US8821927B2, “Pharmaceutical composition” (SmithKline Beecham (Cork) Limited, priority 2005, dated 2014)
# Assay: solubility in aqueous media
# Format: physicochemical
# Settings: over the physiologically relevant pH range
# Text: Of particular interest is N-{3-Chloro-4-[(3-fluorobenzyl)oxy]phenyl}-6-[5-({[2-(methanesulphonyl)ethyl]amino}methyl)-2-furyl]-4-quinazolinamine ditosylate monohydrate.
smiles,measurement,value
"CS(=O)(=O)CCNCc1ccc(-c2ccc3ncnc(Nc4ccc(OCc5cccc(F)c5)c(Cl)c4)c3c2)o1 [GW572016, N-{3-Chloro-4-[(3-fluorobenzyl)oxy]phenyl}-6-[5-({[2-(methanesulphonyl)ethyl]amino}methyl)-2-furyl]-4-quinazolinamine]",solubility in aqueous media,poorly soluble
